Data from paper PMC10454728, “A Comparative Study on the Lysosomal Cation Channel TMEM175 Using Automated Whole-Cell Patch-Clamp, Lysosomal Patch-Clamp, and Solid Supported Membrane-Based Electrophysiology: Functional Characterization and High-Throughput Screening Assay Development” (International Journal of Molecular Sciences, 2023).

What was measured:
TMEM175 = biological target: T1, TMEM175 (Homo sapiens, UniProt Q9BSA9); assay: Manual lysosomal patch-clamp (LPC) on vacuolin-1 enlarged lysosomes; type: biochemical
T1 sequence (Q9BSA9 1-504): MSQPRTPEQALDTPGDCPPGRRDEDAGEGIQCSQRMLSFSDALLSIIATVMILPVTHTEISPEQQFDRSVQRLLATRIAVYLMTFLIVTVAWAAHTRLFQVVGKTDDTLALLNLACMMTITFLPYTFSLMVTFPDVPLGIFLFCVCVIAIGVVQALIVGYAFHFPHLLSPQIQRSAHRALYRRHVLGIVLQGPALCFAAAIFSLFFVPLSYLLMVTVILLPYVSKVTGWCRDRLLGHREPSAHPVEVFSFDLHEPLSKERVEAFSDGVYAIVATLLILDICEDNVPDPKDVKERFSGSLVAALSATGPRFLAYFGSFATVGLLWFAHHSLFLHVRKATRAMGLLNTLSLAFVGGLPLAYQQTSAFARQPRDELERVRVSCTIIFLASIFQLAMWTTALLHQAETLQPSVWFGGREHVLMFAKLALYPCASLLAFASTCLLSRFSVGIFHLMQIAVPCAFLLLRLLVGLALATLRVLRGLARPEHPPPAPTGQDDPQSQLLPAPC
Method: Since both technologies apply different assay conditions and samples, the origin of the discrepancies may not be concluded. To investigate potential systematic variations among different assay technologies, namely, whole-cell APC, SSME on purified lysosomes, and manual LPC, we conducted a comparative analysis of the potency and maximum potentiation of a set of eight blinded compounds and SC-79 (Figure 8, Table 4). SSME recordings were performed using the same procedures as described for the tool compounds above. However, adjustments were made to the voltage application protocol in APC, as outlined in the Methods section. Lysosomal patch-clamp was performed using a manual setup. In contrast to APC and SSME recordings, the recorded current in LPC represents H^+ efflux from lysosomes in the presence of a physiological pH gradient (details are provided in the Methods section).
Experiments were carried out in whole-lysosome configuration in voltage-clamp mode, using a modified patch-clamp method, as described by Chen et al..
Briefly, cells were treated overnight with 5 µM vacuolin-1 to increase the size of the lysosomes. Mechanical isolation was performed using a patch pipette pressed against a selected cell, and quickly pulled away to slice the cell membrane to release the enlarged lysosomes into the dish. After the dissection of the lysosomes, the glass electrode was exchanged for a recording electrode. After the formation of a giga-seal and compensation of capacitance transients, voltage steps of several hundred millivolts with millisecond duration were applied to break into the vacuolar membrane.
The bath solution representing the cytosol contained 10 mM HEPES (pH 7.2), 145 mM K-methanesulfonate and 5 mM KCl. The pipette solution representing the lysosomal lumen contained 10 mM MES (pH 5.5), 145 mM Cs-methanesulfonate, 5 mM KCl, and 10 mM EGTA.
After the reappearance of capacitance transients to verify the whole-lysosome configuration, the TMEM175 currents were recorded using a ramp protocol from −100 to +100 mV with 1 s of duration, digitized at 20 kHz. The ramp protocol was repeated in 4 s intervals, keeping the lysosomes at 0 mV in between. We used the outward current at +100 mV as a read-out, essentially observing the flux of H^+ and Cs^+ from the lysosome into the cytosol. […]
Before averaging across datasets obtained from N = 3 lysosomes, we normalized the currents to the control current. Datasets containing 6 or 9 compound concentrations were recorded in two or three sets of experiments with 3 compound concentrations per lysosome. All experiments were conducted at room temperature, and recordings were analyzed with pClamp 10.7 and GraphPad Prism 8.

control HEK293 UT cells = assay: Whole-cell APC off-target effects on control cells; type: cell-based, human; conditions: 50 µM
Method: Figure 7 Whole-cell APC recordings on TMEM175: (A) Schematic representation of assay conditions in the Cs^+ flux assay. The ions known to permeate through TMEM175 in the external and internal solutions are indicated; (B) Voltage protocol and time points for the read-out of inward and outward currents; (C) The compound application protocol consists of the recording of the TMEM175 baseline current. […] Success rates were determined based on the QC criteria provided in the Methods section. […] We determined average values, AVGpos and AVGneg, and standard deviations, SDpos and SDneg, of the recorded currents. […] Datapoints were normalized to the TMEM175 baseline current before compound addition and then averaged across at least N = 5 cells. Error bars represent the SEM obtained from automated data analysis using DataControl384. […] The compound effects on control cells were between +10% and -40% compared to the control baseline current. […]. […] Therefore, off-target compound effects seem to be negligible in the APC assay.

Row | Imax − Imin (nA), LPC (TMEM175; Table 4 fit, currents normalized to current before compound) | n (Hill coefficient), LPC (TMEM175; fixed to 1 in the fit) | Potentiation, LPC (TMEM175; from dose-response fit, Figure 8) | EC50 (TMEM175; outward current at +100 mV, pipette pH 5.5 / bath pH 7.2) | Compound | Decrease of baseline current of control cells (control HEK293 UT cells)
1 | 0.91 ± 0.52 nA | 1 | 91 ± 52% | 21 ± 32 µM | CCOC(=O)C1=C(N)Oc2ccc(Cl)cc2C1C(C#N)C(=O)OCC (centres unmarked) [SC-79] | –
2 | – | – | – | – | [Cl-].[Cl-].[Zn+2] [Zn, ZnCl2] | 30–40%
